# Results reported in US6410575B1, “Viral treatment” (The Procter & Gamble Company, priority 1999, dated 2002).
# “And” between values parts separate entries of the source, which are not always exact repeats. Identical values can stand only once. Like-named read-outs stand apart in the source and are kept apart here.
# What was measured:
# HEPG2 2.2.15 = test: Toxicity values in the hepatitis B test; format: cell-based; design: Toxicity Values, sample / Toxicity Values, mean: unit not given here
# hepatitis B = test: In vitro virus production test of hepatitis B, HEPG2 2.2.15; format: cell-based
# Cryptococcus neoformans = test: Anti-fungal activity, MFC (NCCLS M-27A based); format: cell-based; conditions: cidal level
# Experimental: (§1) It was active against Cryptococcus neoformans and Curvularia lunata. The cidal activity for the C. neoformans is high enough that it is clear […] against this yeast. This test was conducted using a method based upon NCCLS reference method M-27A published in 1997. Solvent, medium and growth controls were set-up with the tests. Once these were read to validate the test performance, the QC fungi were read to insure they had expected results. These steps validated the test system. DMSO was used as a drug-chemical solvent. […] The 90% cut-off is necessary for azoles, which are static and not cidal. The […] or cidal level, was determined by sub-culturing a sample from each tube showing no growth.
# vero cells = test: Herpes simplex testing, toxicity (TC50); design: unit not given beside the values
# [1] = test system: Human Herpes Virus 8 (HHV8); test: Kaposi's sarcoma / HHV8 DNA copy number in TPA-induced BCBL-1 cells; format: cell-based; conditions: HHV8, BCBL-1 cells
# Experimental: (§2) The DNA copy number and the toxicity value were measured and compared with Cidofovir. Kaposi's sarcoma (KS) is a cancer that is often found in people with weak immune systems, such as those taking immunosuppressants or those with AIDS. The exact nature of the disease is uncertain, but it is almost always found in association with HHV8.
# [2] = Toxicity values in the HHV8 test; format: cell-based; conditions: human, TPA-induced BCBL-1 cells; read-out: TC50 (the source's name)
# Experimental: (§3) Toxicity quantification involves the XTT-based evaluation. Assays were designed to characterize the long term effects of the compounds on virus production and to characterize the longer term effects of the compounds on virus production from chronically HIV infected cells.
# as §2
# TPA-induced BCBL-1 cells = test: Toxicity values in the HHV8 test; format: cell-based
# Experimental: as §3, §2
# Curvularia lunata = test: Anti-fungal activity, MIC (NCCLS M-27A based); format: cell-based; conditions: growth inhibited or reduced at least 90%
# Experimental: as §1
# BVDV = BVDV testing in vitro; format: cell-based, bovine diarrhea virus; conditions: first test
# Text: DMSO had no effect, as expected.
# BVDV is a bovine diarrhea virus and is a well known surrogate virus for hepatitis C which cannot be cultured in vitro.
smiles,measurement,setting,value
"Nc1ccn([C@@H]2CS[C@H](CO)O2)c(=O)n1 [3TC, lamivudine, reference compound]",% cell control,HEPG2 2.2.15; 0.0032 μg/ml,90.8%
same,"Toxicity Values, mean",HEPG2 2.2.15; 0.0032 μg/ml,1.137
same,"Toxicity Values, sample",HEPG2 2.2.15; 0.0032 μg/ml,1.173 and 1.230 and 1.009
same,% cell control,HEPG2 2.2.15; 0.01 μg/ml,84.6%
same,"Toxicity Values, mean",HEPG2 2.2.15; 0.01 μg/ml,1.060
same,"Toxicity Values, sample",HEPG2 2.2.15; 0.01 μg/ml,1.081 and 1.099 and 1.001
same,% cell control,HEPG2 2.2.15; 0.032 μg/ml,94.3%
same,"Toxicity Values, mean",HEPG2 2.2.15; 0.032 μg/ml,1.181
same,"Toxicity Values, sample",HEPG2 2.2.15; 0.032 μg/ml,1.153 and 1.316 and 1.074
same,"Toxicity Values, mean",HEPG2 2.2.15; 0.1 μg/ml,1.190
same,% cell control,HEPG2 2.2.15; 0.32 μg/ml,93.6%
same,"Toxicity Values, mean",HEPG2 2.2.15; 0.32 μg/ml,1.172
same,"Toxicity Values, sample",HEPG2 2.2.15; 0.32 μg/ml,1.207 and 1.227 and 1.082
same,% cell control,HEPG2 2.2.15; 1 μg/ml,106.5%
same,"Toxicity Values, mean",HEPG2 2.2.15; 1 μg/ml,1.334
same,"Toxicity Values, sample",HEPG2 2.2.15; 1 μg/ml,1.256 and 1.322 and 1.423
same,TC50,HEPG2 2.2.15; HEPG2 2.2.15,> 1 µg/mL
same,TC50,"HEPG2 2.2.15; HEPG2 2.2.15, replicate experiment",> 1 µg/mL
same,"DNA Copy Number (per 3 μl), sample",hepatitis B; 0.1 μg/ml,73.0 per 3 μl
same,% virus control,hepatitis B; 1 μg/ml,1.4%
same,"DNA Copy Number (per 3 μl), mean",hepatitis B; 1 μg/ml,4.0 per 3 μl
same,IC50,"hepatitis B; Hepatitis B virus, HepG2 2.2.15",0.021 µg/mL
same,IC50,"hepatitis B; hepatitis B, HEPG2 2.2.15",0.089 µg/mL
"CCC(C)n1ncn(-c2ccc(N3CCN(c4ccc(OCC5COC(Cn6cncn6)(c6ccc(Cl)cc6Cl)O5)cc4)CC3)cc2)c1=O (stereo not shown) [Itra, Itraconazole]",MFC,Cryptococcus neoformans; read-out: MFC,32 µg/mL
"Nc1nc2c(ncn2COCCO)c(=O)[nH]1 [Acyclovir, reference compound]",TC50,vero cells,> 1
"Nc1ccn(C[C@@H](CO)OCP(=O)(O)O)c(=O)n1 [Cidofovir, reference compound]",TI,[1],TI = 19.2
same,CC50,[2],21.1 µM
same,% cell control,TPA-induced BCBL-1 cells; 0.08 μM,83.9%
same,% cell control,TPA-induced BCBL-1 cells; 0.25 μM,90.1%
same,% cell control,TPA-induced BCBL-1 cells; 0.8 μM,82.8%
same,% cell control,TPA-induced BCBL-1 cells; 2.5 μM,75.0%
same,% cell control,TPA-induced BCBL-1 cells; 8 μM,69.3%
same,% cell control,TPA-induced BCBL-1 cells; 25 μM,4403%
"COC(=O)Nc1nc2ccccc2[nH]1 [Methyl, methyl 1,2-benzmimidazole carbamate or benomyl]",MFC,Cryptococcus neoformans,32 µg/mL
same,MIC,Curvularia lunata,0.03 µg/mL
"NC(=O)c1ncn([C@@H]2O[C@H](CO)[C@@H](O)[C@H]2O)n1 [Ribavirin, reference compound]","Antiviral Index (AI), TC50/IC50",BVDV,2.25
"c1ccc2[nH]c(-c3cscn3)nc2c1 [Thia, thiabendazole]",MFC,Cryptococcus neoformans; read-out: MFC,32 µg/mL
same,MIC,Curvularia lunata; read-out: MIC,0.03 µg/mL
"C[C@@H]1[C@H](O)[C@@H](C)/C=C/C=C/C=C/C=C/C=C/C=C/C=C/[C@H](O[C@@H]2O[C@H](C)[C@@H](O)[C@H](N)[C@@H]2O)C[C@@H]2O[C@](O)(C[C@@H](O)C[C@@H](O)[C@H](O)CC[C@@H](O)C[C@@H](O)CC(=O)O[C@H]1C)C[C@H](O)[C@H]2C(=O)O [AmB, amphotericin B]",MFC,Cryptococcus neoformans,0.5 µg/mL
same,MIC,Curvularia lunata,0.06 µg/mL
